Test results as given in patent US8648201B2, “Aminopyridine derivatives for treating tumors and inflammatory diseases” (MERCK PATENT GmbH, priority 2009, dated 2014).

What was measured:
PDK1 [1] = molecular target: T1, PDK1 (Homo sapiens, UniProt O15530); experiment: Test for the inhibition of PDK1 (flashplate, 33P-ATP); format: biochemical; conditions: enzyme
T1 construct: His6 (N)
T1 sequence (O15530 51-556 limits assumed): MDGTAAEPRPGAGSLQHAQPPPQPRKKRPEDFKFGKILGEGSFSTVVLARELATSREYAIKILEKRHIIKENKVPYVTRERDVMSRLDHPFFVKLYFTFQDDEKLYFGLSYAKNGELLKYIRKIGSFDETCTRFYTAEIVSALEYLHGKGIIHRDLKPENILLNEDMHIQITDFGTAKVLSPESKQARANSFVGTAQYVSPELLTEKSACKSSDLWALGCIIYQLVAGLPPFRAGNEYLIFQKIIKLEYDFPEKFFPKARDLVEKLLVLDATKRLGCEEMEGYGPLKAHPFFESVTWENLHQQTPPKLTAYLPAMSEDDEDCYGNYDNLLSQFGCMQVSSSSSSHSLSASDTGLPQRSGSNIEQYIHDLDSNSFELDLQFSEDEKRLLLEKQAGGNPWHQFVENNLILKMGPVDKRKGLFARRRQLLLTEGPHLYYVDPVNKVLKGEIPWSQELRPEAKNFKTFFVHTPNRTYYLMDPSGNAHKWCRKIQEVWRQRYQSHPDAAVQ
Experimental: The experimental batches are carried out in a flashplate system with 384 wells/microtitration plate.
In each case, the PDK1 sample His6-PDK1(1-50)(3.4 nM), the PDK1 substrate biotin-bA-bA-[…] (400 nM), 4 μM ATP (with 0.2 μCi of ^33P-ATP/well) and the test substance in 50 μl of conventional experimental solution per well are incubated at 30° C. for 60 min. The test substances are employed in corresponding concentrations (if desired in a dilution series). The control is carried out without test substance. The reaction is stopped using standard methods and washed. The activity of the kinase is measured via the incorporated radioactivity in top count. In order to determine the non-specific kinase reaction (blank value), the experimental batches are carried out in the presence of 100 nM staurosporin.
The radioactivity (decompositions per minute) of the blank value (no use of test substance in the presence of staurosporin) is subtracted from all other radioactivity values. The controls (kinase activity without test substance) are set equal to 100 percent and all other radioactivity values (after subtracting the blank value) are expressed set in relation thereto (for example in % of the control).
IC50 values (50% inhibition) are determined with the aid of statistics programmes, such as, for example, RS1.

IRAK-4 = molecular target: T2, IRAK-4 (Homo sapiens, UniProt Q9NWZ3); experiment: Test for the inhibition of IRAK4 (flashplate, 33P-ATP); format: biochemical; conditions: enzyme
T2 construct: His6 (N); Dr.Jaekel
T2 sequence (Q9NWZ3 1-460): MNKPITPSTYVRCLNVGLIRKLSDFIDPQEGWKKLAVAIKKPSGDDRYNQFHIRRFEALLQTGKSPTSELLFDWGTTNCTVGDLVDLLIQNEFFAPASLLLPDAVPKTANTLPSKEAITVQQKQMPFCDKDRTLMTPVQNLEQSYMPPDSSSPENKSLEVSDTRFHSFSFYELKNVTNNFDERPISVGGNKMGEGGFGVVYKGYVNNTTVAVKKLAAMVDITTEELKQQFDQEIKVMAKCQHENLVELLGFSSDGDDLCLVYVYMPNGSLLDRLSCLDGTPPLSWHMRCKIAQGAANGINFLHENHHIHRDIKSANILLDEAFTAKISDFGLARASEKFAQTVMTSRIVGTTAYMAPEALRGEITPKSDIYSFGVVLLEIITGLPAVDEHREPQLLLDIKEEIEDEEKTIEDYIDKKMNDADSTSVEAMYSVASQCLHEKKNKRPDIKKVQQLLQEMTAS
Experimental: (§1) The experimental batches are carried out in a flashplate system with 384 wells/microtitre plate. In each case, the IRAK4 sample His6-IRAK4 (7.3 nM), the biotinylated substrate peptide STK substrate 1-biotin (Cisbio Bioassays, France) (300 nM), 10 μM ATP (with 0.25 μCi of ^33P-ATP/well) and the test substance in 50 μl of conventional experimental solution per well are incubated at 22° C. for 180 min. The test substances are employed in corresponding concentrations (if desired in a dilution series). The control is carried out without test substance. The reaction is stopped using standard methods and washed. The activity of the kinase is measured via the incorporated radioactivity in top count. In order to determine the non-specific kinase reaction (blank value), the experimental batches are carried out in the presence of 1 μM staurosporin. The radioactivity (decompositions per minute) of the blank value (no use of test substance in the presence of 1 μM staurosporin) is subtracted from all other radioactivity values. The controls (kinase activity without test substance) are set equal to 100 percent and all other radioactivity values (after subtracting the blank value) are expressed set in relation thereto (for example in % of the control). IC50 values (50% inhibition) are determined with the aid of statistics programs, such as, for example, RS1.

IRAK-1 = molecular target: T3, IRAK-1 (Homo sapiens, UniProt P51617); experiment: Test for the inhibition of IRAK1 (autophosphorylation, flashplate); format: biochemical; conditions: enzyme
T3 construct: His6 (N); Dr.Jaekel Pool B, 232Y08C1.IRK
Experimental: as §1, with “case, in order to investigate” for “case,”, “inhibition of the autophosphorylation activity of IRAK1, the IRAK1” for “IRAK4”, “His6-IRAK1 (5.1” for “His6-IRAK4 (7.3”, “1” for “the biotinylated substrate peptide STK substrate 1-biotin (Cisbio Bioassays, France) (300 nM), 10”

PDK1 [2] = molecular target: T4, PDK1 (Homo sapiens, UniProt O15530); experiment: IC50 PDK1 (cell); format: cell-based
T4 construct: endogenous in cells; host or cells: commercially available colon carcinoma, ovary, prostate or breast cell lines (none named)
T4 sequence (O15530 1-556): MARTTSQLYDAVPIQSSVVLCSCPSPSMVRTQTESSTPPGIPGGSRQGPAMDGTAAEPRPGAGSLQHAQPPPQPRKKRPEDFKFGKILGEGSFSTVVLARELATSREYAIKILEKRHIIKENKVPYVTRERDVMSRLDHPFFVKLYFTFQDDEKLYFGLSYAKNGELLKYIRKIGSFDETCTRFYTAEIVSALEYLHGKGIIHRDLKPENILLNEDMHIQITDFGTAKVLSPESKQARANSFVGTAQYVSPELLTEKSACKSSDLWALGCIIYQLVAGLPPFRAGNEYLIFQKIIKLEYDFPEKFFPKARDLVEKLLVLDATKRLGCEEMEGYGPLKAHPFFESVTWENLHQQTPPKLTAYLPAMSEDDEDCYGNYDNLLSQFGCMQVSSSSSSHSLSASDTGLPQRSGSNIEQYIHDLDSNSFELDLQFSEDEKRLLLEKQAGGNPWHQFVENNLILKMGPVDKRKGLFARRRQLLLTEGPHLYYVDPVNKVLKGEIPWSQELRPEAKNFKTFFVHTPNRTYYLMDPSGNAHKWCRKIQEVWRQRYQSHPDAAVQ
Experimental: The cells are sown in a suitable cell density in microtitre plates (96-well format) and the test substances are added in the form of a concentration series. After four further days of cultivation in serum-containing medium, the tumour cell proliferation/tumour cell vitality can be determined by means of an Alamar Blue test system. A defined number of cells (for example 2000 cells) per culture/well in a volume of 180 μl of culture medium are sown in microtitre plates (96 well cell-culture plates) using a multichannel pipette. The cells are subsequently cultivated in a CO2 incubator (37° C. and 10% CO2). The test substances are dissolved, for example, in DMSO and subsequently employed in corresponding concentration (if desired in a dilution series) in the cell culture medium. The dilution steps can be adapted depending on the efficiency of the active ingredients and the desired spread of the concentrations. Cell culture medium is added to the test substances in corresponding concentrations. The addition of the test substances to the cells can take place on the same day as the sowing of the cells. To this end, in each case 20 μl of substance solution from the predilution plate are added to the cultures/wells. The cells are cultivated for a further 4 days at 37° Celsius and 10% CO2. In each case, 20 μl of Alamar Blue reagent are added per well, and the microtitre plates are incubated, for example, for a further seven hours in a CO2 incubator (at 37° C. and 10% CO2). The plates are measured in a reader with a fluorescence filter at a wavelength of 540 nm. The plates can be shaken gently immediately before the measurement. The absorbance value of the medium control (no cells and test substances used) is subtracted from all other absorbance values. The controls (cells without test substance) are set equal to 100 percent, and all other absorbance values are set in relation thereto (for example in % of control): Calculation: 100*(value with cells and test substance−value of medium control)/(value with cells−value of medium control) IC50 values (50% inhibition) are determined with the aid of statistics programs, such as, for example, RS1.

T3 sequence (P51617 whole entry, species assumed): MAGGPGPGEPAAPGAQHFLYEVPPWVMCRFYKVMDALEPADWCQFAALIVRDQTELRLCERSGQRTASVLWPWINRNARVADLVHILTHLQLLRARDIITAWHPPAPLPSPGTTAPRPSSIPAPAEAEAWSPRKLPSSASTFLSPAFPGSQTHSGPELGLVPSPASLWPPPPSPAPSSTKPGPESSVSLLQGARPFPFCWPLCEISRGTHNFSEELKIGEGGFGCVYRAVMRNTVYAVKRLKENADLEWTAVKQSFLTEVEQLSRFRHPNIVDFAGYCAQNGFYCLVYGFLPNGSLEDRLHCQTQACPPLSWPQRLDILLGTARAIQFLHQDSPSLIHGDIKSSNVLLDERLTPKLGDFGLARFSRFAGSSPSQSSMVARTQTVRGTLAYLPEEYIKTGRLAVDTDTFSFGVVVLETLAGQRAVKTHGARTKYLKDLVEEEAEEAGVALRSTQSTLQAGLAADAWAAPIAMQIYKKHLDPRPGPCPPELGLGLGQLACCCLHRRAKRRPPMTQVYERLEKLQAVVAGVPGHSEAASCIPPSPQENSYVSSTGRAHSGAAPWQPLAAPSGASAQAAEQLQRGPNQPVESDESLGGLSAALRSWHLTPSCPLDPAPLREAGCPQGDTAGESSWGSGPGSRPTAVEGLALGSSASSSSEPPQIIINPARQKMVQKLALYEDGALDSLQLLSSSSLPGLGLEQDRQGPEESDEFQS

IC50 (PDK1 [1])	IC50 (IRAK-4)	IC50 (IRAK-1)	IC50 (PDK1 [2])	Compound
100 to 10000 nM	1 to 100 nM	100 to 10000 nM		COc1cc2[nH]c(-c3cc(-c4cnn(CCN5CCOCC5)c4)cnc3N)nc2cc1F [Compound A148, 3-(5-Fluoro-6-methoxy-1H-benzimidazol-2-yl)-5-[1-(2-morpholin-4-ylethyl)-1H-pyrazol-4-yl]pyridin-2-ylamine]
1 to 100 nM	100 to 10000 nM	100 to 10000 nM		Cc1cccc2nc(-c3cc(-c4cnn(C5CCNCC5)c4)cnc3N)[nH]c12 [Compound A89, 3-(7-Methyl-1H-benzimidazol-2-yl)-5-(1-piperidin-4-yl-1H-pyrazol-4-yl)pyridin-2-ylamine]
1 to 100 nM			0.1 to 10 µM	CC1CC(=O)NN=C1c1ccc2[nH]c(-c3cc(-c4cnn(CCN5CCOCC5)c4)cnc3N)nc2c1 (stereo not shown) [Compound A9, 6-(2-{2-amino-5-[1-(2-morpholin-4-ylethyl)-1H-pyrazol-4-yl]-pyridin-3-yl}-1H-benzimidazol-5-yl)-5-methyl-4,5-dihydro-2H-pyridazin-3-one]
1 to 100 nM	100 to 10000 nM	100 to 10000 nM		Cn1cc(-c2cnc(N)c(-c3nc4ccc(F)cc4[nH]3)c2)cn1 [Compound A74]
1 to 100 nM			0.1 to 10 µM	COCCCn1cc(-c2cnc(N)c(-c3nc4cc(C5=NNC(=O)CC5C)ccc4[nH]3)c2)cn1 (stereo not shown) [Compound A13, 6-(2-{2-Amino-5-[1-(3-methoxypropyl)-1H-pyrazol-4-yl]-pyridin-3-yl}-1H-benzimidazol-5-yl)-5-methyl-4,5-dihydro-2H-pyridazin-3-one]
1 to 100 nM			0.1 to 10 µM	Cn1cc(-c2cnc(N)c(-c3nc4c(O)cccc4[nH]3)c2)cn1 [Compound A102, 2-[2-Amino-5-(1-methyl-1H-pyrazol-4-yl)pyridin-3-yl]-1H-benzimidazol-4-ol]
	100 to 10000 nM	1 to 100 nM		COc1ccc2nc(-c3cc(-c4cnn(Cc5cccs5)c4)cnc3N)[nH]c2c1 [Compound A113, 3-(6-Methoxy-1H-benzimidazol-2-yl)-5-(1-thiophen-2-ylmethyl-1H-pyrazol-4-yl)pyridin-2-ylamine]
	100 to 10000 nM	100 to 10000 nM		Cc1cccc2nc(-c3cc(-c4cnn(CCN5CCOCC5)c4)cnc3N)[nH]c12 [Compound A48]

Continued, molecule first:

Compound	IC50 (PDK1 [1])	IC50 (IRAK-4)	IC50 (IRAK-1)	IC50 (PDK1 [2])
COc1cc2nc(-c3cc(-c4cnn(C)c4)cnc3N)[nH]c2cc1F [Compound A78]	1 to 100 nM	100 to 10000 nM	1 to 100 nM	
CC(C)(C)c1ccc2nc(-c3cc(-c4cnn(C5CCNCC5)c4)cnc3N)[nH]c2c1 [Compound A53]	1 to 100 nM			0.1 to 10 µM
Cn1cc(-c2cnc(N)c(-c3nc4ccc(C(O)c5ccccc5)cc4[nH]3)c2)cn1 (stereo not shown) [Compound A80]	1 to 100 nM			> 10 µM
COc1cc2[nH]c(-c3cc(-c4cnn(C5CCNCC5)c4)cnc3N)nc2cc1F [Compound A69]	1 to 100 nM	1 to 100 nM	1 to 100 nM	
CC1CC(=O)NN=C1c1ccc2[nH]c(-c3cc(-c4cnn(C5CCN(C)CC5)c4)cnc3N)nc2c1 (stereo not shown) [Compound A16]	1 to 100 nM			> 10 µM
C[C@@H]1CC(=O)NN=C1c1ccc2nc(-c3cc(-c4cnn(C)c4)cnc3N)[nH]c2c1 (single isomer, unassigned) [Compound A2]	1 to 100 nM			0.1 to 10 µM
Nc1ncc(-c2cnn(C3CCNCC3)c2)cc1-c1nc2cc(OC(F)(F)F)ccc2[nH]1 [Compound A67]	1 to 100 nM			0.1 to 10 µM
C[C@H]1CC(=O)NN=C1c1ccc2nc(-c3cc(-c4cnn(C)c4)cnc3N)[nH]c2c1 (single isomer, unassigned) [Compound A3]	1 to 100 nM			> 10 µM
